Results reported in article PMC6044503 (ACS Omega, 2017).
“And” between values parts separate entries of the source, which are not always exact repeats. Identical values can stand only once. Where a SMILES comes first, the peptide text is derived from it. [ ]: non-standard residue; d: D form. The star is where a group is joined. 1Nal = N[C@@H](Cc1cccc2ccccc12)C(=O)O; 2Nal = N[C@@H](Cc1ccc2ccccc2c1)C(=O)O; Cyclohexanecarbonyl = O=C(C1CCCCC1)*; 1Naphthoyl = O=C(c1cccc2ccccc12)*; 2Naphthoyl = O=C(c1ccc2ccccc2c1)*; Cha = N[C@@H](CC1CCCCC1)C(=O)O; Nle = CCCC[C@H](N)C(=O)O; Aib = CC(C)(N)C(=O)O; Bz = O=C(c1ccccc1)*

Columns and labels:
human Y2R [1] = molecular target: T1, human Y2R (Homo sapiens, UniProt P49146); assay: biochemical; assay type: biochemical
T1 sequence (P49146 1-381): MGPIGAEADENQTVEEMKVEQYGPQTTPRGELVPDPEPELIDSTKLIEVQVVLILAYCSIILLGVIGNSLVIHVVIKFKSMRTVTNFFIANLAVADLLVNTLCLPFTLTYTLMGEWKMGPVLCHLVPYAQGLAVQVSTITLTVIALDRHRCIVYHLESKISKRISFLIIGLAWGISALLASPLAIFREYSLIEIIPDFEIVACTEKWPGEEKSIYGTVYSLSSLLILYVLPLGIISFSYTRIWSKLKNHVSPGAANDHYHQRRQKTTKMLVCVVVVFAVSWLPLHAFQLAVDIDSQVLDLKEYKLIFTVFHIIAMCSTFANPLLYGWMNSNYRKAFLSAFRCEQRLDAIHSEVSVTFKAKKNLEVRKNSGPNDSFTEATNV

human Y2R [2] = molecular target: T1, human Y2R; assay: biochemical; assay type: binding
male C57BL/6J mice = assay: Food intake assay, bolus ip administration in lean mice; assay type: in vivo, mouse; conditions: for % food intake inhibition: vs saline; for % food intake inhibition / % food intake inhibition (cumulative): mean ± SD; for minimum effective dose (food intake reduction): ip administration, lean mice
[3] = bolus ip 1000 nmol/kg, 3 h after administration
[4] = bolus ip 500 nmol/kg, 3 h after administration

Row | Structure (SMILES) | EC50 (human Y2R [1]) [nM] | IC50 (human Y2R [2]) [nM] | % food intake inhibition (male C57BL/6J mice; [4]) | further results
1 | CCCC[C@H](NC(=O)[C@H](CC(C)C)NC(=O)[C@H](CC(N)=O)NC(=O)[C@@H](NC(=O)[C@H](CC1CCCCC1)NC(=O)[C@H](Cc1c[nH]cn1)NC(=O)[C@H](CCCNC(=N)N)NC(=O)c1ccccc1)[C@@H](C)CC)C(=O)N[C@H](C(=O)N[C@@H](CCCNC(=N)N)C(=O)N[C@@H](CCC(N)=O)C(=O)N[C@@H](CCCNC(=N)N)C(=O)N[C@@H](CC1CCCCC1)C(N)=O)[C@@H](C)O [Compound 7] (Bz-RH[Cha]INL[Nle]TRQR[Cha]-NH2) | 2.4 | 13 |  | % food intake inhibition (male C57BL/6J mice; [3]): 12 ± 5%
2 | CC[C@H](C)[C@H](NC(=O)[C@H](CC1CCCCC1)NC(=O)[C@H](Cc1c[nH]cn1)NC(=O)[C@H](CCCNC(=N)N)NC(=O)c1ccccc1)C(=O)N[C@@H](CC(N)=O)C(=O)N[C@@H](CC(C)C)C(=O)N[C@@H](CCCCN)C(=O)N[C@H](C(=O)N[C@@H](CCCNC(=N)N)C(=O)N[C@@H](CCC(N)=O)C(=O)N[C@@H](CCCNC(=N)N)C(=O)N[C@@H](CC1CCCCC1)C(N)=O)[C@@H](C)O [Compound 9] (Bz-RH[Cha]INLKTRQR[Cha]-NH2) | 0.62 | 1.6 |  | agonist activity, fold increase compared to that of 4 (human Y2R [1]; relative to compound 4): more than 4 fold; % food intake inhibition (male C57BL/6J mice; [3]): –15 ± 7%
3 | CC[C@H](C)[C@H](NC(=O)[C@H](CC1CCCCC1)NC(=O)[C@H](Cc1c[nH]cn1)NC(=O)[C@H](CCCNC(=N)N)NC(=O)C1CCCCC1)C(=O)N[C@@H](CC(N)=O)C(=O)N[C@@H](Cc1c[nH]c2ccccc12)C(=O)N[C@H](C(=O)N[C@H](C(=O)N[C@@H](CCCNC(=N)N)C(=O)N[C@@H](CCC(N)=O)C(=O)N[C@@H](CCCNC(=N)N)C(=O)N[C@@H](CC1CCCCC1)C(N)=O)[C@@H](C)O)[C@@H](C)CC [Compound 13] (Cyclohexanecarbonyl-RH[Cha]INWITRQR[Cha]-NH2) | 1.7 | 6.8 | 8 ± 6% | 
4 | CC[C@H](C)[C@H](NC(=O)[C@H](Cc1c[nH]c2ccccc12)NC(=O)[C@H](CC(N)=O)NC(=O)[C@H](CC1CCCCC1)NC(=O)[C@H](CC1CCCCC1)NC(=O)[C@H](Cc1c[nH]cn1)NC(=O)[C@H](CCCNC(=N)N)NC(=O)C1CCCCC1)C(=O)N[C@H](C(=O)N[C@@H](CCCNC(=N)N)C(=O)N[C@@H](CCC(N)=O)C(=O)N[C@@H](CCCNC(=N)N)C(=O)N[C@@H](CC1CCCCC1)C(N)=O)[C@@H](C)O [Compound 14] (Cyclohexanecarbonyl-RH[Cha][Cha]NWITRQR[Cha]-NH2) | 11 | 15 | 23 ± 7% | 
5 | CC[C@H](C)[C@H](NC(=O)[C@H](CC1CCCCC1)NC(=O)[C@H](Cc1c[nH]cn1)NC(=O)[C@H](CCCNC(=N)N)NC(=O)C1CCCCC1)C(=O)N[C@@H](CC(N)=O)C(=O)N[C@@H](CC(C)C)C(=O)NC(C)(C)C(=O)N[C@H](C(=O)N[C@@H](CCCNC(=N)N)C(=O)N[C@@H](CCC(N)=O)C(=O)N[C@@H](CCCNC(=N)N)C(=O)N[C@@H](CC1CCCCC1)C(N)=O)[C@@H](C)O [Compound 16] (Cyclohexanecarbonyl-RH[Cha]INL[Aib]TRQR[Cha]-NH2) | 1.6 | 4.9 | 5 ± 13% | 
6 | CC[C@H](C)[C@H](NC(=O)[C@H](CC1CCCCC1)NC(=O)[C@H](Cc1c[nH]cn1)NC(=O)[C@H](CCCNC(=N)N)NC(=O)C1CCCCC1)C(=O)N[C@@H](CC(N)=O)C(=O)N[C@@H](Cc1c[nH]c2ccccc12)C(=O)NC(C)(C)C(=O)N[C@H](C(=O)N[C@@H](CCCNC(=N)N)C(=O)N[C@@H](CCC(N)=O)C(=O)N[C@@H](CCCNC(=N)N)C(=O)N[C@@H](CC1CCCCC1)C(N)=O)[C@@H](C)O [Compound 17] (Cyclohexanecarbonyl-RH[Cha]INW[Aib]TRQR[Cha]-NH2) | 1.9 | 5.7 | 24 ± 5% | 
7 | CC(C)C[C@H](NC(=O)[C@H](CC(N)=O)NC(=O)[C@H](Cc1c[nH]c2ccccc12)NC(=O)[C@H](CC1CCCCC1)NC(=O)[C@H](Cc1c[nH]cn1)NC(=O)[C@H](CCCNC(=N)N)NC(=O)c1ccccc1)C(=O)NC(C)(C)C(=O)N[C@H](C(=O)N[C@@H](CCCNC(=N)N)C(=O)N[C@@H](CCC(N)=O)C(=O)N[C@@H](CCCNC(=N)N)C(=O)N[C@@H](CC1CCCCC1)C(N)=O)[C@@H](C)O [Compound 18] (Bz-RH[Cha]WNL[Aib]TRQR[Cha]-NH2) | 1.6 | 6.4 | 2 ± 8% | 
8 | CC(C)C[C@H](NC(=O)[C@H](CC(N)=O)NC(=O)[C@H](Cc1cccc2ccccc12)NC(=O)[C@H](CC1CCCCC1)NC(=O)[C@H](Cc1c[nH]cn1)NC(=O)[C@H](CCCNC(=N)N)NC(=O)c1ccccc1)C(=O)NC(C)(C)C(=O)N[C@H](C(=O)N[C@@H](CCCNC(=N)N)C(=O)N[C@@H](CCC(N)=O)C(=O)N[C@@H](CCCNC(=N)N)C(=O)N[C@@H](CC1CCCCC1)C(N)=O)[C@@H](C)O [Compound 19] (Bz-RH[Cha][1Nal]NL[Aib]TRQR[Cha]-NH2) | 2.7 | 9.1 | 41 ± 5% | 
9 | CC(C)C[C@H](NC(=O)[C@H](CC(N)=O)NC(=O)[C@H](Cc1ccc2ccccc2c1)NC(=O)[C@H](CC1CCCCC1)NC(=O)[C@H](Cc1c[nH]cn1)NC(=O)[C@H](CCCNC(=N)N)NC(=O)c1ccccc1)C(=O)NC(C)(C)C(=O)N[C@H](C(=O)N[C@@H](CCCNC(=N)N)C(=O)N[C@@H](CCC(N)=O)C(=O)N[C@@H](CCCNC(=N)N)C(=O)N[C@@H](CC1CCCCC1)C(N)=O)[C@@H](C)O [Compound 20] (Bz-RH[Cha][2Nal]NL[Aib]TRQR[Cha]-NH2) | 7.5 | 29 | 18 ± 2% | 
10 | CC(C)C[C@H](NC(=O)[C@H](CC(N)=O)NC(=O)[C@H](CC1CCCCC1)NC(=O)[C@H](CC1CCCCC1)NC(=O)[C@H](Cc1c[nH]cn1)NC(=O)[C@H](CCCNC(=N)N)NC(=O)c1ccccc1)C(=O)NC(C)(C)C(=O)N[C@H](C(=O)N[C@@H](CCCNC(=N)N)C(=O)N[C@@H](CCC(N)=O)C(=O)N[C@@H](CCCNC(=N)N)C(=O)N[C@@H](CC1CCCCC1)C(N)=O)[C@@H](C)O [Compound 21, benzoyl-[Cha^27,28,36,Aib^31]PYY(25–36)] (Bz-RH[Cha][Cha]NL[Aib]TRQR[Cha]-NH2) |  |  | 49% and 49 ± 4% | agonist activity, fold lower than that of PYY3–36 (human Y2R [1]): more than 10 fold; binding affinity, fold lower than that of PYY3–36 (human Y2R [2]): more than 10 fold; % food intake inhibition (male C57BL/6J mice; bolus ip 250 nmol/kg, 3 h after administration): 32 ± 3%; % food intake inhibition (cumulative) (male C57BL/6J mice; ip 3 nmol/kg, 3 h after administration): –1 ± 6%; % food intake inhibition (cumulative) (male C57BL/6J mice; ip 3 nmol/kg, 6 h after administration): –1 ± 2%; % food intake inhibition (cumulative) (male C57BL/6J mice; ip 3 nmol/kg, 24 h after administration): –7 ± 5%; % food intake inhibition (cumulative) (male C57BL/6J mice; ip 30 nmol/kg, 3 h after administration): 20 ± 6%; % food intake inhibition (cumulative) (male C57BL/6J mice; ip 30 nmol/kg, 6 h after administration): 18 ± 3%; % food intake inhibition (cumulative) (male C57BL/6J mice; ip 30 nmol/kg, 24 h after administration): –2 ± 3%; % food intake inhibition (cumulative) (male C57BL/6J mice; ip 300 nmol/kg, 3 h after administration): 47 ± 3%; % food intake inhibition (cumulative) (male C57BL/6J mice; ip 300 nmol/kg, 6 h after administration): 45 ± 2%; % food intake inhibition (cumulative) (male C57BL/6J mice; ip 300 nmol/kg, 24 h after administration): 8 ± 3%; minimum effective dose (food intake reduction) (male C57BL/6J mice; food intake 3 and 6 h after dosing): 30 nmol/kg; minimum effective dose (food intake reduction) (male C57BL/6J mice; mass equivalent of 30 nmol/kg): ca. 52 μg/kg
11 | CC(C)C[C@H](NC(=O)[C@H](CC(N)=O)NC(=O)[C@H](CC1CCCCC1)NC(=O)[C@H](CC1CCCCC1)NC(=O)[C@H](Cc1c[nH]cn1)NC(=O)[C@H](CCCNC(=N)N)NC(=O)C1CCCCC1)C(=O)NC(C)(C)C(=O)N[C@H](C(=O)N[C@@H](CCCNC(=N)N)C(=O)N[C@@H](CCC(N)=O)C(=O)N[C@@H](CCCNC(=N)N)C(=O)N[C@@H](CC1CCCCC1)C(N)=O)[C@@H](C)O [Compound 22] (Cyclohexanecarbonyl-RH[Cha][Cha]NL[Aib]TRQR[Cha]-NH2) | 4 | 11 | 25 ± 7% | 
12 | CC(C)C[C@H](NC(=O)[C@H](CC(N)=O)NC(=O)[C@H](CC1CCCCC1)NC(=O)[C@H](CC1CCCCC1)NC(=O)[C@H](Cc1c[nH]cn1)NC(=O)[C@H](CCCNC(=N)N)NC(=O)c1cccc2ccccc12)C(=O)NC(C)(C)C(=O)N[C@H](C(=O)N[C@@H](CCCNC(=N)N)C(=O)N[C@@H](CCC(N)=O)C(=O)N[C@@H](CCCNC(=N)N)C(=O)N[C@@H](CC1CCCCC1)C(N)=O)[C@@H](C)O [Compound 25] (1Naphthoyl-RH[Cha][Cha]NL[Aib]TRQR[Cha]-NH2) | 5.8 | 18 |  | 
13 | CC(C)C[C@H](NC(=O)[C@H](CC(N)=O)NC(=O)[C@H](CC1CCCCC1)NC(=O)[C@H](CC1CCCCC1)NC(=O)[C@H](Cc1c[nH]cn1)NC(=O)[C@H](CCCNC(=N)N)NC(=O)c1ccc2ccccc2c1)C(=O)NC(C)(C)C(=O)N[C@H](C(=O)N[C@@H](CCCNC(=N)N)C(=O)N[C@@H](CCC(N)=O)C(=O)N[C@@H](CCCNC(=N)N)C(=O)N[C@@H](CC1CCCCC1)C(N)=O)[C@@H](C)O [Compound 26] (2Naphthoyl-RH[Cha][Cha]NL[Aib]TRQR[Cha]-NH2) | 6 | 26 |  | 
